pIC50: −log10 of the molar value. Read-outs that look alike come from different tables or passages of the source.
Columns and labels:
[1] = target: recombinant human kinase domain of JAK1 (Homo sapiens (Human), UniProt P23458); test: JAK Caliper enzyme assay at 1 mM ATP (JAK1); type: biochemical; settings: 1 mM ATP; read-out: IC50 (nM) JAK1;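 also: microfluidic mobility-shift readout of synthetic fluorescent peptide phosphorylation, percent product converted from peak height, inhibition relative to DMSO-only wells as uninhibited baseline, room temperature incubation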
[2] = target: recombinant human kinase domain of JAK2 (Homo sapiens (Human), UniProt O60674); test: JAK Caliper enzyme assay at 1 mM ATP (JAK2); type: biochemical;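 also: microfluidic mobility-shift read-out of fluorescent synthetic peptide phosphorylation, percent product converted from peak heights, room temperature, DMSO-only wells as uninhibited baseline, inhibition curve fit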
[3] = target: recombinant human kinase domain of JAK3 (Homo sapiens (Human), UniProt P52333); test: JAK Caliper enzyme assay at 1 mM ATP (JAK3); type: biochemical; settings: 1 mM ATP; read-out: IC50 (nM) JAK3;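 also: microfluidic mobility-shift readout of synthetic peptide phosphorylation, percent product converted from peak heights, normalized to DMSO-only wells as uninhibited baseline, room temperature incubation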
[4] = target: recombinant human kinase domain of TYK2 (Homo sapiens (Human), UniProt P29597); test: JAK Caliper enzyme assay at 1 mM ATP (TYK2); type: biochemical; settings: for IC50: 1 mM ATP, read-out: IC50 (nM) TYK2;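 as to all read-outs here: microfluidic mobility-shift readout of synthetic peptide phosphorylation by TYK2, tuned to 20–30% conversion at room temperature, reaction stopped with EDTA, DMSO-only wells as uninhibited baseline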
[5] = tested on: interferon alpha signalling (TYK2 and JAK1), STAT3 phosphorylation; test: Human whole blood INFα induced STAT3 phosphorylation assay; type: cell-based; settings: compound 60 minutes at 37° C., IFNα 5000 U/ml for 15 minutes, pSTAT3 in lymphocyte population by flow cytometry, read-out: HWB IFN alpha IC50;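 also: flow cytometry with anti-pSTAT3 staining, signal as percent-positive × mean fluorescence, baseline from unstimulated wells, 11-point dilution series, IC50 as inhibition of pSTAT3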

Chain of recombinant human kinase domain of JAK3 (P52333 822-1111): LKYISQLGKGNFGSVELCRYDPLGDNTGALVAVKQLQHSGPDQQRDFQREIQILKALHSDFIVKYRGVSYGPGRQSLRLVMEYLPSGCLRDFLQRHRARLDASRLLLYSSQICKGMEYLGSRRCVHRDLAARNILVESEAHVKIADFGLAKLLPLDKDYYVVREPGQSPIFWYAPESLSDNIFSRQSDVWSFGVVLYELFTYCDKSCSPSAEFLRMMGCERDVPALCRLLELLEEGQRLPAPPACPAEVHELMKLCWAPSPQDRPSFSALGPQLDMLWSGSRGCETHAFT
Chain of recombinant human kinase domain of TYK2 (P29597 897-1176): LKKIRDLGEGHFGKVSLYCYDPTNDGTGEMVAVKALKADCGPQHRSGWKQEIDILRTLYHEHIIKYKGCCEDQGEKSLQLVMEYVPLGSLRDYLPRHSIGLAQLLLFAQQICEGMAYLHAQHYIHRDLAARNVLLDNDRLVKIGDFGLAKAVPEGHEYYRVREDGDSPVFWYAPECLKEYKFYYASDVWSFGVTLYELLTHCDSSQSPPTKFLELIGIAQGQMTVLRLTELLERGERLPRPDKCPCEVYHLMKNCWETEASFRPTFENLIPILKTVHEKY
Chain of recombinant human kinase domain of JAK2 (O60674 849-1124): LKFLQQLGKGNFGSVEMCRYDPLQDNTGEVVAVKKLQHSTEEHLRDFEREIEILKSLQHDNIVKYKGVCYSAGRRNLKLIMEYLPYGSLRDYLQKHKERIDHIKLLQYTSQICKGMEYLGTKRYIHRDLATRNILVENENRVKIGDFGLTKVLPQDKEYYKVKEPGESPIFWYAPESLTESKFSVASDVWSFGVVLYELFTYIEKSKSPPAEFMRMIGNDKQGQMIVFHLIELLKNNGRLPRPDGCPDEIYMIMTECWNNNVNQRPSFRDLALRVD
Chain of recombinant human kinase domain of JAK1 (P23458 875-1153): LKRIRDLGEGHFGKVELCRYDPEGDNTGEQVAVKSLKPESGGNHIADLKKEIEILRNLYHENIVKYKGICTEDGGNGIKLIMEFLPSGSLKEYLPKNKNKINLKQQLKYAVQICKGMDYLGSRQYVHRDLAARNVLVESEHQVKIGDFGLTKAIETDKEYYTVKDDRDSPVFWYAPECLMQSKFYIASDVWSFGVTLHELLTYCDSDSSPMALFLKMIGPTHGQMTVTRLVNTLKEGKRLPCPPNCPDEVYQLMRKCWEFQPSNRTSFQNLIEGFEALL

SMILES	IC50 [1]	IC50 [2]	IC50 [3]	IC50 [4]	pIC50 [5]	pIC50 [4]
O=C(C1CC1)N1[C@@H]2CC[C@H]1CN(c1ccnc(Nc3cn[nH]c3)n1)C2 [Example 49, cyclopropyl{(1R,5S)-3-[2-(1H-pyrazol-4-ylamino)pyrimidin-4-yl]-3,8-diazabicyclo[3.2.1]oct-8-yl}methanone]	77 nM	614 nM	> 10000 nM	49 nM	7.07	–
C[C@H](CO)c1ccc(Nc2nccc(N3C[C@H]4CC[C@@H](C3)N4C(=O)[C@@H]3CC3(F)F)n2)cn1 (single isomer, unassigned) [Example 12]	79 nM	80 nM	> 10000 nM	–	7.06	7.55
CCNC(=O)N1[C@@H]2CC[C@H]1CN(c1ccnc(Nc3cnc(C(=O)NC)c(Cl)c3)n1)C2 [Example 75, (1R,5S)-3-(2-{[5-chloro-6-(methylcarbamoyl)pyridin-3-yl]amino}pyrimidin-4-yl)-N-ethyl-3,8-diazabicyclo[3.2.1]octane-8-carboxamide]	462 nM	1290 nM	> 10000 nM	66 nM	6.12	–
CNC(=O)c1ncc(Nc2nccc(N3C[C@H]4CC[C@@H](C3)N4C(=O)[C@@H]3CC3(F)F)n2)cc1C (single isomer, unassigned) [Example 33]	62 nM	116 nM	9280 nM	15 nM	6.91	–
N#CCCN1[C@@H]2CC[C@H]1CN(c1ccnc(Nc3cn[nH]c3)n1)C2 [Example 79, 3-{(1R,5S)-3-[2-(1H-pyrazol-4-ylamino)pyrimidin-4-yl]-3,8-diazabicyclo[3.2.1]oct-8-yl}propanenitrile]	38 nM	406 nM	8420 nM	34 nM	7.19	–
CCNC(=O)c1ccc(Nc2ncc(F)c(N3CC4CC(C3)N4C(=O)C(C)(C)F)n2)cc1C [Example 112, N-ethyl-4-({5-fluoro-4-[6-(2-fluoro-2-methylpropanoyl)-3,6-diazabicyclo[3.1.1]hept-3-yl]pyrimidin-2-yl}amino)-2-methylbenzamide]	4070 nM	3040 nM	> 10000 nM	21 nM	6.11	–
CNC(=O)c1ncc(Nc2nccc(N3C[C@H]4CC[C@@H](C3)N4C(=O)NCC(F)(F)F)n2)cc1C [Example 89]	10 nM	65 nM	4430 nM	9 nM	6.93	–
